We go through 88 compounds from PubChem BioAssay AID463204 (Broad Institute, 2010).

By AC50 is commonly meant the midpoint of the concentration-response curve, whichever way the signal moves.

Activity calls are given as the source filed them.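 How the source made its calls: active means AC50 no more than ten times the top concentration tested, that is within one log above it; inconclusive means flat curve fit with activity between 30% and 70%, or invalid poor fit; inactive means AC50 beyond ten times the top tested dose.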 Bounds are passed on as bounds.

The subject of the experiment is S. cerevisiae Mot1-301 ts growth rescue, BacTiter-Glo ATP luminescence. The experiment can be described thus: restored Mot1-301 yeast growth at 38.5C – whole organism, S. cerevisiae, Mot1-301 ts mutant, luminescence, dose retest, SUMOylation pathway inhibitor project, confirmation (AID 463204).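 Further: growth at restrictive 38.5 degrees C of Mot1-301 OY566 strain; actives raise luminescence by restoring growth of the ts mutant at high temperature.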
With `Cc1onc(-c2ccccc2)c1C(=O)N/N=C/C=C/c1ccccc1`, the AC50 was > 42 µM (inactive).
With `Cc1ccc(-c2csc(C3=C(O)CN(NC(=O)c4ccco4)C3=N)n2)cc1`, the AC50 was > 42 µM (inactive).
For `COCC(=O)Nc1c(C(=O)Nc2ccc3c(c2)OCO3)oc2ccccc12`, the AC50 is > 42 µM (inactive).
With `CN(Cc1cccnc1)Cc1cn[nH]c1-c1ccc(-c2ccccc2)cc1`, the AC50 was > 42 µM (inactive).
For the compound `Cc1cc(C)cc(C(=O)NC(CC(N)=O)c2ccc(N3CCC(N4CCCCC4)CC3)c([N+](=O)[O-])c2)c1` (stereo not drawn), the AC50 was > 42 µM (inactive).
Under `Cc1cc(C)cc(N2C(=O)CC(Sc3ncn[nH]3)C2=O)c1` (stereo not drawn) stands 1.92 µM; under `COc1ccccc1C1NC(=O)CS1` (stereo not drawn), > 42 µM (inactive); under `CCOC(=O)C(C)(C)Sc1nc2c(cnn2-c2ccc(C)cc2)c(=O)[nH]1`, > 42 µM (inactive).
`OCC1(Cc2cccc(Cl)c2)CCCN(Cc2ccc(F)c(F)c2)C1` (stereo not drawn): the AC50 is > 42 µM (inactive).
In the case of `Cc1ccc(C(C[N+](=O)[O-])c2c(C)[nH]n(-c3ccccc3)c2=O)cc1` (stereo not drawn), the AC50 was 6.06 µM.
As for `C=CCN1C(=O)/C(=C2/Sc3ccc(OC)cc3N2C)SC1=Nc1ccccc1`, the AC50 is > 42 µM (inactive).
For the compound `Cc1ccc(S(=O)(=O)NCc2ccc(C(=O)N3CCN(c4ccccn4)CC3)cc2)cc1`, the AC50 is > 42 µM (inactive).
In the case of `CC1=C(C(=O)OCc2ccccc2)C(c2cccc(F)c2)NC(=O)N1` (stereo not drawn), the AC50 is > 42 µM (inactive).
Regarding `Cc1cnc(NC(=O)CSc2nc3ccccc3s2)s1`, the AC50 was > 42 µM (inactive).
With `CCCOc1ccc([N+](=O)[O-])c(N)c1`, the AC50 was > 42 µM (inactive).
In the case of `O=C(Nc1ccncc1Cl)c1ccncc1`, the AC50 is > 42 µM (inactive).
`CCCCCC(=O)Nc1nnn(CCC)n1`: the AC50 was > 42 µM (inactive).
As for `Cc1cccc(NC(=O)CSCC(=O)N2CCCc3ccccc32)c1`, the AC50 is > 42 µM (inactive).
Under `NN1C(=O)NC(c2ccccc2)(c2ccccc2)C1=O` stands > 42 µM (inactive); under `CCn1cc(C(=O)N(C)c2ccc(OC)cc2OC)c2cc(OC)c(OC)cc2c1=O`, > 42 µM (inactive).
Consider `O=Cc1ccccc1OCCN1CCCC1=O`, for which the AC50 is > 42 µM (inactive).
Under `CCCCNS(=O)(=O)c1ccc2c(c1)oc(=O)n2CC(=O)OCC` stands > 42 µM (inactive); under `CC(C)(C)NC(=O)NC(=O)CN1CCN(S(=O)(=O)c2ccc3c(c2)OCCO3)CC1`, > 21 µM (inactive).
As to `O=C(c1cccnc1)N1CCCC(Nc2ccc(F)cc2)C1` (stereo not drawn), the AC50 was > 42 µM (inactive).
Turning to `COc1ccc(CN2C(=O)c3c(c(C)n(C)c3C)C2C(=O)NC2CCC(C)CC2)cc1` (stereo not drawn), the AC50 is > 21 µM (inactive).
Under `COc1cc(C(=O)Nc2ccc3c(c2)OCCO3)ccc1-n1cnnn1` stands > 42 µM (inactive); under `O=S(=O)(O)c1ccc(N=NNc2ccc(Br)cc2)cc1`, > 42 µM (inactive); under `CCOc1ccc(Cl)cc1CNc1nnnn1CC`, > 42 µM (inactive).
As to `CCC(=O)N1CCc2cc(S(=O)(=O)CCC(=O)Nc3cccc(C)n3)ccc21`, the AC50 is > 42 µM (inactive).
As for `COc1ccc(-c2[nH]ncc2CNCCn2cccn2)c(F)c1`, the figure is > 42 µM (inactive); as for `Cc1ccc(S(=O)(=O)N[C@@H](Cc2ccccc2)C(=O)CCl)cc1`, 1.47 µM.
For the compound `CCn1c(SCC(=O)Nc2ccc(NC(=O)c3ccco3)cc2)nnc1-c1cccs1`, the AC50 was > 42 µM (inactive).
Under `CCc1ccccc1NC(=O)N[C@@H](C)C(=O)OC` stands > 42 µM (inactive).
As for `Cc1ccc(-c2cc(C(=O)O)c3ccccc3n2)s1`, the AC50 is > 42 µM (inactive).
On to `Cc1ccc(-c2nc(-c3cccnc3)sc2CC(=O)O)cc1`, for which the AC50 was > 42 µM (inactive).
With `COc1cccc(/C=N/NC(=O)CCn2cnc3ccccc32)c1`, the AC50 was > 42 µM (inactive).
Turning to `CCS(=O)(=O)c1nc(S(=O)(=O)c2ccc(Cl)cc2)c(N2CCc3ccccc3C2)s1`, the AC50 was > 42 µM (inactive).
Turning to `CNS(=O)(=O)c1cccc(C(=O)OCC(=O)Nc2ccc(OC)cc2[N+](=O)[O-])c1`, the AC50 is > 42 µM (inactive).
With `CCC1SC2=NC(C)=C(C(=O)OCCOC)C(c3ccc(C(=O)OC)cc3)N2C1=O` (stereo not drawn), the AC50 was > 42 µM (inactive).
For the compound `CCOc1ncccc1C(=O)OCC(=O)N(CC)c1ccccc1`, the AC50 was > 42 µM (inactive).
Turning to `Cc1ccc(CNC(=O)c2ccc(N3CCC4(CC3)CC(c3ccccc3)=NO4)c(NC(=O)c3cccc(C)c3)c2)cc1`, the AC50 is > 42 µM (inactive).
Under `CCOC(=O)c1ccccc1NC(=O)CSc1ccc(-c2ccccn2)nn1` stands > 42 µM (inactive).
As for `O=C(NC(=S)NNC(=O)c1ccccc1O)c1cccc([N+](=O)[O-])c1`, the AC50 is > 42 µM (inactive).
Consider `COc1ccc(NC(=O)CSc2nccc(C)n2)cc1`, for which the AC50 was > 42 µM (inactive).
With `Cc1cccc(C)c1NC(=O)C(Cl)C(=O)c1ccccc1` (stereo not drawn), the AC50 is 0.68 µM.
Take `O=C(Nc1ccc2[nH]c(=O)[nH]c2c1)c1c(F)c(F)c(F)c(F)c1F`: the AC50 is > 42 µM (inactive).
On to `CC1=C(C(=O)N2CCOCC2)C(c2ccc(O)cc2)NC(=S)N1` (stereo not drawn), for which the AC50 was > 42 µM (inactive).
Take `Cc1c(NC(=O)c2cc(-c3ccccc3O)on2)c(=O)n(-c2ccccc2)n1C`: the AC50 is > 42 µM (inactive).
On to `CCOC(=O)c1sc2ncn(C(CC)C(=O)OCC)c(=O)c2c1C` (stereo not drawn), for which the AC50 was > 42 µM (inactive).
In the case of `O=C1N=C(N2CCN(c3ccccc3)CC2)SC1Cc1ccccc1` (stereo not drawn), the AC50 was > 42 µM (inactive).
Take `N#Cc1ccc2[nH]c(CO)c(-c3ccccc3)c2c1`: the AC50 is > 42 µM (inactive).
Under `CC(Oc1ccccc1[N+](=O)[O-])C(=O)N/N=C/c1ccoc1` (stereo not drawn) stands > 42 µM (inactive).
Turning to `CCCCCCNc1c(C(=O)OCC)c(=O)[nH]c2ccccc12`, the AC50 was > 42 µM (inactive).
For `Cc1ccc(C2C(C(=O)c3cccs3)=C(O)C(=O)N2c2ccc(S(N)(=O)=O)cc2)cc1` (stereo not drawn), the AC50 is > 42 µM (inactive).
As for `COc1ccc(-c2oc3ccc(-c4cc(OC)c(OC)c(OC)c4)cc3c2C(=O)c2ccc(OC)nc2)cc1`, the AC50 was > 42 µM (inactive).
In the case of `CC(=O)N1N=C(c2ccc(C(C)(C)C)cc2)OC1(C)C`, the AC50 was > 42 µM (inactive).
For the compound `COC(=O)c1ccc(/C=N/NC(=O)C(=O)NCC2CCCO2)cc1` (stereo not drawn), the AC50 is > 42 µM (inactive).
Take `O=C(NCc1nc(-c2ccccc2)no1)c1cccs1`: the AC50 is > 42 µM (inactive).
In the case of `N#C/C(=C/c1ccc(N2CCCCC2)o1)C(=O)Nc1ccc(Cl)cc1`, the AC50 is > 42 µM (inactive).
As for `Cc1nn(CCOc2ccccc2)c(=O)n1-c1ccccc1F`, the figure is > 42 µM (inactive); as for `CCOc1ccc(C(=O)NCC2OCCc3ccccc32)cc1` (stereo not drawn), > 42 µM (inactive).
Consider `S=c1[nH]ccn1-c1cccc(Cl)c1`, for which the AC50 was > 42 µM (inactive).
Consider `CC(NC(=O)OCc1ccccc1)C(=O)N1CC(O)CC1C(=O)O` (stereo not drawn), for which the AC50 was > 21 µM (inactive).
With `NS(=O)(=O)c1cccc(NC(=O)CSc2nnnn2-c2ccccc2)c1`, the AC50 was > 42 µM (inactive).
Turning to `CCN(Cc1ccccc1)Cc1ccc(OCc2ccccc2)c(OC)c1`, the AC50 was > 42 µM (inactive).
For `Cc1cc2nc(CCl)cc(=O)n2[nH]1`, the AC50 is > 42 µM (inactive).
As for `CN1C(=O)C(=Cc2ccc(N3CCCCC3)o2)C(=O)N(C)C1=S`, the AC50 was > 42 µM (inactive).
Consider `CN(C)c1ccc(NC(=O)CSc2nc(N)c(C(=O)Nc3ccc(N(C)C)cc3)s2)cc1`, for which the AC50 is > 42 µM (inactive).
As to `CC1CCCC(N2C(=O)NC(NC(=O)c3ccco3)(C(F)(F)F)C2=O)C1C` (stereo not drawn), the AC50 was > 42 µM (inactive).
Under `CC(C)n1c(CN(C)c2ccccc2)nc2ccccc21` stands > 42 µM (inactive); under `Cc1ccc(NC(=O)COC(=O)c2csc3c2CCC(C)C3)cc1S(=O)(=O)N1CCCCC1` (stereo not drawn), > 42 µM (inactive).
Under `O=C(C1CCN(S(=O)(=O)N2CCC3(CC2)OCCO3)CC1)N1CCC(Cc2ccccc2)CC1` stands > 42 µM (inactive).
Consider `CC(C)(c1ccccc1)c1ccc(OCCN2CCOCC2)cc1`, for which the AC50 is > 42 µM (inactive).
As for `COc1ccc(N2C(=O)CCC(C(=O)NCc3cccnc3)C2c2ccc(OC)c(OC)c2)cc1` (stereo not drawn), the figure is > 42 µM (inactive); as for `CN(CC(=O)NCc1cccs1)S(=O)(=O)c1cccc2nsnc12`, > 42 µM (inactive); as for `Cc1ccc(Oc2ccc(OCC(=O)Nc3ccncc3)cc2)cc1`, 23.5 µM.
Take `O=C(Nc1nnc(COc2ccc(F)cc2)s1)c1cccs1`: the AC50 was > 42 µM (inactive).
As for `COCCCNC(=O)c1cc(C(=O)c2c(-c3c(Cl)cccc3Cl)noc2C)c[nH]1`, the figure is > 42 µM (inactive); as for `Cc1ccc(NC(=O)Cn2nnc(C(=O)NCc3ccc4c(c3)OCO4)c2N)cc1`, > 42 µM (inactive).
Under `CCc1c(C)nc(N2CCN(Cc3ccccc3)CC2)[nH]c1=O` stands > 42 µM (inactive); under `CC1(C)CC(=O)C(C=Nc2ccc(O)c(N=CC3=C(O)CC(C)(C)CC3=O)c2)=C(O)C1`, > 42 µM (inactive).
Regarding `CCCCn1c(N)c(N(CCOC)C(=O)c2cnccn2)c(=O)[nH]c1=O`, the AC50 is > 42 µM (inactive).
As to `OCCc1c[nH]c2cc(F)ccc12`, the AC50 is > 110 µM (inactive).
With `Cc1ccccc1-c1nnc(SCc2ccc(F)cc2)o1`, the AC50 was > 42 µM (inactive).
For the compound `COc1ccc2c(c1)[C@H]1[C@H](CO2)[C@H](c2ccccc2)[C@]2(C)C(=O)Nc3ccc(C)cc3C(=O)N12`, the AC50 was > 42 µM (inactive).
As for `COC(=O)c1c(C)n(Cc2ccc3c(c2)OCO3)c2ccc(O)cc12`, the AC50 is > 42 µM (inactive).
For the compound `N#Cc1cc([N+](=O)[O-])cnc1NCC(O)CO` (stereo not drawn), the AC50 is > 42 µM (inactive).
On to `CCCCc1ccc(NC(=S)NCc2cccs2)cc1`, for which the AC50 is 41.9 µM.
